# Data taken from US8778310B2, “Fluorescent chlorotoxin conjugate and method for intra-operative visualization of cancer” (priority 2005, dated 2014).
# Legend:
# [1] = test system: 9L glioma cells; assay: In vitro imaging of CTX:Cy5.5 binding to 9L glioma cells (NIR/confocal microscopy); type: cell-based, rat; details: pre-incubation with MMP-2 inhibitor
# Experimental: 9L/lacZ gliosarcoma cells (ATCC, VA) and primary human foreskin fibroblast (HFF) were maintained in DMEM and RPMI medium both supplemented with 1% sodium pyruvate, 1% streptomycin/penicillin and 10% FBS (Hyclone, UT), respectively. 2×10^5 cells were seeded on sterile cover slips 36 hrs prior to labeling and confocal microscopy. Cells were cultured with 1 ml of CTX:CY5.5 conjugate (1 uM) for 2 hours in a 37° C. humidified incubator maintained at 5% CO2. Cover slips were washed 2 times in cell culture medium and 2 times in PBS buffer. Following this step, cell membranes were stained with 1 μM solution of FM 1-43FX (Molecular Probes, OR) for 20 min in dark at room temperature, washed 2 times in PBS and fixed in 4% paraformaldehyde. Cellular nuclei were stained with 4′,6-diamidino-2-phenylndole (DAPI, Sigma Aldrich, MO).
# Confocal images were acquired using a DeltaVision SA3.1 Wide-Field Deconvolution Microscope (Applied Precision, WA) equipped with DAPI, TRITC, and Cy5 filters. Image processing was performed using SoftWoRX (Applied Precision, WA).
# To determine whether CTX retained specific binding to glioma cells after conjugation to Cy5.5, we incubated the conjugate with 9L glioma cells and primary fibroblasts and evaluated binding by NIR microscopy. […]
# [2] = test system: 9L glioma xenografts; assay: In vivo biophotonic imaging of mice with 9L glioma xenografts; set-up: species or system mouse; details: versus control mice without 1,10-phenanthroline
# Experimental: All mouse studies were conducted in accordance with IACUC approved protocols. Subcutaneous xenografts were established in nu/nu (nude) mice using 9L, a rat gliosarcoma cell line (ATCC), and RH30, a rhabdomyosarcoma cell line. The xenografts were established using 1 million 9L or RH30 cells suspended in serum free media and matrigel at a 1:1 ratio. Intracranial xenografts were established by stereotaxic injection of 1 million 9L cells suspended in 10 μl PBS into the brain 3 mm lateral and posterior to the bregma. ND2:SmoA1 medulloblastoma mice, TRAMP prostate cancer mice and Apc^1638N intestinal adenoma and adenocarcinoma mice were as previously described. See, Fodde, R., et al., A targeted chain-termination mutation in the mouse Apc gene results in multiple intestinal tumors. Proc. Natl. Acad. Sci. U.S.A., 1994. 91(19): p. 8969-73; Greenberg, N. M., et al., Prostate cancer in a transgenic mouse. Proc. Natl. Acad. Sci. U.S.A., 1995. 92(8): p. […]
# CTX:Cy5.5 (0.1-0.2 ml of 10-20 μM) was administered intravenously by tail vein injection. […] Relevant organs and tumors were dissected from some of the animals and fluorescence image were obtained immediately following dissection. In time course experiments, all images were captured using identical system settings and fluorescence emission was normalized to photons per second per centimeter squared per steradian (p/s/cm^2/sr).
# [3] = test system: glioma and normal brain histologic sections; assay: Staining of histologic sections of glioma and normal brain; set-up: species or system human
# [4] = type: in vivo, mouse
# Experimental: To further assess potential CTX toxicity at doses used for optical imaging, complete necropsy was performed on mice two weeks after exposure to CTX.
# [5] = previously reported; cited from earlier work
compound,measurement,setting,value
"c1cnc2c(c1)ccc1cccnc12 [1,10-phenanthroline]","Binding of CTX:Cy5.5 to 9L glioma cells after pre-incubation with 1,10-phenanthroline",[1],blocked
same,"Specific binding of CTX:Cy5.5 in mice pre-treated with 1,10-phenanthroline",[2],six-fold lower
Cy5.5,staining of glioma section,[3],does not stain glioma
chlorotoxin [CTX],"laboratory evaluation (electrolytes, blood counts, liver and kidney function)",[4]; doses used for optical imaging,no alteration
same,toxicity overall,[4]; doses used for optical imaging,no toxicity could be detected
same,pathologic changes in organs (necropsy),"[4]; doses used for optical imaging, b143: two weeks after exposure",indistinguishable from control mice
same,open field observation,[4]; injected mice versus control mice,indistinguishable from control mice
same,locomotor activity in mice,[5],reduce locomotor activity
